Test results from patent US10472393B2, “Method for inhibiting ADAM proteases with cyclic peptides” (Cancer Research Technology Limited, priority 2007, dated 2019).
*1 amine or outer side, *2 acyl side, *3 side chain or, on linkers, in order; H or OH if unused. Where a SMILES comes first, the peptide text is derived from it. Where no end group is shown, it is not given here. [ ]: non-standard residue; d: D form. isoSer(2S) = O=C([C@@H](O)CN[*:1])[*:2]

Tests used:
recombinant ADAM8 = molecular target: T1, recombinant ADAM8 (Mus musculus, UniProt Q05910); assay: Fluorescence assay of purified recombinant ADAM8 with fluorogenic CD23 peptide substrate; assay type: biochemical; conditions: for inhibition of ADAM8 proteolytic activity: FIG. 1B, peptides at 100 nM
T1 sequence (Q05910 17-826): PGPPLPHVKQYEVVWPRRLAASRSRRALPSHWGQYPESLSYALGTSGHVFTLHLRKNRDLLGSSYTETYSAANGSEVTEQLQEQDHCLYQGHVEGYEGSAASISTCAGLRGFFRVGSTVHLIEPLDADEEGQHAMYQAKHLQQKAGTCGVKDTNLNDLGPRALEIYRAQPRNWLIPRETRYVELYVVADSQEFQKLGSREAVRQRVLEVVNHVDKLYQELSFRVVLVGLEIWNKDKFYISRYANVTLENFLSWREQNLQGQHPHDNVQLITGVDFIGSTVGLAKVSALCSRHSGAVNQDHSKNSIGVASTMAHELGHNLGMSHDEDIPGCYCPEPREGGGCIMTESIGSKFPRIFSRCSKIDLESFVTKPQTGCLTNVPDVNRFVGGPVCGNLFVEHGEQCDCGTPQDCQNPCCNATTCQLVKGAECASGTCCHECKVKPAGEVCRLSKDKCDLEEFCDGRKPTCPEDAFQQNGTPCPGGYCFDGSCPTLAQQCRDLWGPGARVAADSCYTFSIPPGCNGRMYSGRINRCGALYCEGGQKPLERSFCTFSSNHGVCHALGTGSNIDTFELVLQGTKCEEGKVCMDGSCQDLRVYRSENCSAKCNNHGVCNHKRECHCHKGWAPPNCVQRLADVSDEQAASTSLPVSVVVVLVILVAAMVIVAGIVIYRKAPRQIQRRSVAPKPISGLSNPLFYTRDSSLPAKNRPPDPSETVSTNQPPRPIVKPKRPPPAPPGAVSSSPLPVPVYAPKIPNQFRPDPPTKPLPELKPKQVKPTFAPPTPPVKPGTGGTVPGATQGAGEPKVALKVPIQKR
Method: In the following example, the ability of cyclic peptides to inhibit the activity of a recombinant ADAM8 was tested in fluorescence assays using a fluorogenic ADAM8 substrate (Moss and Rasmussen, 2007).
(§1) Activity of purified recombinant ADAM8 was assessed by using a fluorogenic CD23 peptide (Dabcyl-[…](5-FAM)-CONH2, SEQ ID NO:19) as a substrate. 50 ng substrate was incubated with 100 ng of ADAM8 in assay buffer (25 mM TrisHCl pH 7.5, 10 mM CaCl2, 150 mM NaCl) at 37° C. in the time range of 0 to 18 hours. Potential ADAM8 inhibitors were preincubated for 30 min before addition of the substrate. As a negative control, CD23 was incubated with assay buffer. For determination of ADAM10 activity, 100 ng of the recombinant ADAM10 protein (R&D systems) was used in conjunction with the fluorogenic substrate Dabcyl-LAQA(HomoPhe) RSC (Fluorescein)-NH2 (SEQ ID NO:55) in assay buffer (TrisHCl pH 9.0, 2.5 μM ZnCl2). For both assays the final volume in each well was 150 μl. Activity was measured as increase in fluorescence resulting from ADAM8/ADAM10 to cleave the quenched fluorescent substrates (λ excitation: 485 nm; λ emission: 520 nm) using a BMG Optima plate reader fluorometer.

[1] = system: C6 glioma cells overexpressing ADAM8; assay: Matrigel invasion assay, C6 glioma cells overexpressing ADAM8; assay type: cell-based, rat
Method: (§2) In this example, the ability of cyclic peptide to inhibit ADAM8 mediated tumour cell migration through an artificial extracellular matrix (Matrigel®) was measured in a cell invasion assay. Rat glioma C6 cells were stably transfected with full length ADAM8 cDNA [Schlomann et al, 2002]. Untransfected C6 glioma cells served as controls. 5×10^4 cells were suspended in 100 μl of culture medium in the absence or presence of peptides (100 nM) and loaded into Matrigel invasion chambers (BD Biosciences, Heidelberg, Germany), which were handled according to the supplier's manual. After 20 hours incubation time, invaded cells were fixed with methanol, stained with toluidine blue, and counted. Experiments were performed in triplets and from each well, 10 viewing fields were counted manually under the microscope. Differences between the values obtained were analysed using the Mann-Whitney U test.
(§3) ADAM8 was overexpressed by transfection in fibroblast (L929) and glioma (C6) cell lines which show no invasive potential under untransfected conditions. When ADAM8 expressing plasmids were transfected into these cell lines, the cells became highly invasive in Matrigel Invasion assays (e.g. as described in example 5). […] Invasion is also mediated by a soluble variant of ADAM8, which is released upon activation of ADAM8 in these cells.

[2] = system: mouse fibroblast (L929) cells overexpressing ADAM8; assay: Matrigel invasion assay, L929 fibroblast cells overexpressing ADAM8; assay type: cell-based; conditions: FIG. 11; peptide 5 μM
Method: as §2, §3

ADAM9 = assay: Specificity test, ADAM catalytic/disintegrin construct, TNF peptide fluorescent substrate; assay type: biochemical; conditions: maximal concentration 10 μM
Method: (§4) The maximal concentration of the inhibitor peptide was 10 μM.
(§5) ADAM catalytic/disintegrin constructs were monitored at 5-min intervals using the indicated fluorescent substrates with excitation and emission wavelengths of 485 and 530 nm, respectively. The substrates were diluted from a 10 mM stock in DMSO to 10 μM in assay buffer containing 20 mM Tris, pH 8.0, and 6×10^−4% Brij-35. For experiments with ADAM8 only, 10 mM CaCl2 was added to the buffer. Reactions were run in a 96-well plate with either inhibitor (10 nM-10 μM) in 1% DMSO or a 1% DMSO control. Background wells contained substrate and 1% DMSO and were subtracted from all other wells. Endpoints were determined in wells containing substrate and an excess of ADAM17 for the TNF-alpha substrate and ADAM8 for the CD23 substrate. Concentrations of ADAM proteins were in the range of 2.0 nM for TACE, 10 nM for ADAM9, 5 nM for ADAM10, 10 nM for ADAM8, and 2 nM for ADAM12.

ADAM8 DC domain = molecular target: T2, ADAM8 DC domain (Mus musculus, UniProt Q05910); assay: Adhesion of ADAM8-expressing cells to plates coated with recombinant ADAM8 DC domain; assay type: cell-based; conditions: FIG. 8; concentration used in the range of 10 nM
T2 construct: recombinant ADAM8 disintegrin/cysteine-rich (DC) domain; Myc (C); His6 (C); made in house; host or cells: E. coli strain TOP10
T2 sequence (Q05910 402-643 limits assumed): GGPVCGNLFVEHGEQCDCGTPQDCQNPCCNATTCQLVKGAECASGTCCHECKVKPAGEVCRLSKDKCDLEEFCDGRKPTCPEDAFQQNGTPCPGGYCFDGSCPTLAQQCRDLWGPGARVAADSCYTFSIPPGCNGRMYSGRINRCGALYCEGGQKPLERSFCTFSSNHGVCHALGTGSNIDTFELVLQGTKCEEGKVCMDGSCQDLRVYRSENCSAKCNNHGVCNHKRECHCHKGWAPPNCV
Method: In this example, peptides synthesised as described in example 1 were used to target cell adhesion mediated by the ADAM8 DC domain. A recombinant DC domain of ADAM8 was expressed and purified from E. coli and then coated onto cell culture plates. Cells over-expressing ADAM8 were then allowed to bind to the ADAM8 DC domain on the plates.
96-well plates were coated with 50 μg/ml of recombinant ADAM8 DC protein in PBS at 4° C. for 16 h. To express the recombinant DC domain of ADAM8, the cDNA fragment encoding the A8 DC domain was generated by PCR using Platinum™ Pfx polymerase (Invitrogen) with the following primers: DCE-A8f, 5′-GGTGGCCCTGTGTGTGGAAAC-3′ (SEQ ID NO:17); DCE-A8r, 5′-TACACAGTTGGGTGGTGCCCA-3′ (SEQ ID NO:18). The resulting cDNA fragment was cloned into the bacterial expression vector pTrcHis2 (Invitrogen) containing a C-terminal Myc and His6 tag. This vector was transformed into E. coli strain TOP10 (Invitrogen). Recombinant protein expression was induced with 1 mM isopropyl-1-thio-D-galactopyranoside for 5 h to overnight. […]
After application of the recombinant protein and blocking with bovine serum albumin for 1 h, 10^5 cells in PBS or medium (with 5% FCS) were seeded onto the plates. […] After 1 h incubation at 37 C, the wells were rinsed 3× with PBS, and the remaining cells were quantified by counting 10 randomly chosen viewing fields (100-fold magnification). […]

ADAM10 = assay: Specificity test, ADAM catalytic/disintegrin construct, LAQA fluorescent substrate; assay type: biochemical; conditions: maximal concentration 10 μM
Method: as §4, §5

ADAM17 (TACE) = assay: as above; assay type: biochemical; conditions: maximal concentration 10 μM
Method: as §4, §5

ADAM12 = assay: as above; assay type: biochemical; conditions: maximal concentration 10 μM
Method: as §4, §5

Mice (strain C57BL/6) = assay: Acute and chronic toxicity study in mice; assay type: in vivo, mouse
Method: To test for acute and for chronic toxicity, we used dosages of 1 μg, 5 μg, and 10 μg per gram of body weight in 100 μl of injection volume. Mice (strain C57BL/6) were either injected once (acute toxicity) or weekly three-times (chronic toxicity) intraperitoneal with the dosages indicated. All mice were analysed in cohorts of n=6, and NaCl injected mice were used as controls. […] We assessed spontaneous behaviour and motor performance of the mice. […] After 4 weeks, mice were sacrificed and representative organs were dissected and assessed histologically by normal hematoxylin/eosin (HE) staining. For each cohort of mice, one representative is documented for brain (cerebellum and cortex), liver, spleen, and kidney in FIG. 13.

ADAM8 = assay: Specificity test, ADAM catalytic/disintegrin construct, CD23 fluorescent substrate; assay type: biochemical; conditions: read-out: ADAM inhibition with P1, IC50, 10 mM CaCl2 in buffer
Method: as §4, §5

recombinant ADAM10 = molecular target: T3, recombinant ADAM10 (Homo sapiens, UniProt O14672); assay: Fluorescence assay of recombinant ADAM10 with fluorogenic LAQA peptide substrate; assay type: biochemical; conditions: FIG. 2, peptides at 100 nM
T3 construct: purchased R&D systems
T3 sequence (O14672 214-748): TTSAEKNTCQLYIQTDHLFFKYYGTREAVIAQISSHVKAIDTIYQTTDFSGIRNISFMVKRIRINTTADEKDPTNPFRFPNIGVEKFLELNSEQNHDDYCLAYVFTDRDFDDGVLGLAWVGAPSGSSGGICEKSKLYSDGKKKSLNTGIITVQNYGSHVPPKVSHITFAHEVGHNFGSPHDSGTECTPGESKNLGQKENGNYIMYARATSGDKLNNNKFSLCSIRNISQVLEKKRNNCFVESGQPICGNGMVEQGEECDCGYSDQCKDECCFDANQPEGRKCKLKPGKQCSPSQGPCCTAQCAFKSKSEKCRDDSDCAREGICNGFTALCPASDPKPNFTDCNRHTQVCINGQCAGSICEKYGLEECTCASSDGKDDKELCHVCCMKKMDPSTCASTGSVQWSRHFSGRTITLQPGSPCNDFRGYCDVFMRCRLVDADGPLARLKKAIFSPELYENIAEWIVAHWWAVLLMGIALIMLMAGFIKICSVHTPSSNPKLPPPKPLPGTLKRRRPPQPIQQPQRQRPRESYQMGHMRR
Method: as §1

| IC50 (recombinant ADAM8; FIG. 1A, CD23 as substrate, read-out: IC50 for the inhibition of ADAM8) | Compound | tumour cell invasion in ADAM8 expressing cells ([1]; FIG. 4, Example 5, 20 hours) | cell invasion, dose dependence ([1]; FIG. 10, Example 7) | ADAM-8 mediated cell invasion ([1]; FIG. 12, peptide 5 μM) | ADAM-8 mediated cell invasion [2] | inhibition of ADAM8 proteolytic activity (recombinant ADAM8; CD23 substrate) | concentration dependence of ADAM8 inhibition (recombinant ADAM8; FIG. 1C, 50-200 nM, CD23 substrate) | ADAM inhibition with P1 (ADAM9) | inhibition of cell adhesion mediated by ADAM8 DC domain (ADAM8 DC domain) | ADAM inhibition with P1 (ADAM10) | ADAM inhibition with P1 (ADAM17 (TACE)) | ADAM inhibition with P1 (ADAM12) | spontaneous behaviour and motor performance (Mice (strain C57BL/6); 1, 5, 10 μg per gram body weight i.p., once or weekly three-times, 4 weeks) | survival and obvious abnormalities (Mice (strain C57BL/6); 1, 5, 10 μg per gram body weight i.p., once or weekly three-times, 4 weeks observation) | histology (HE staining) of brain, liver, spleen, kidney (Mice (strain C57BL/6); FIG. 13, after 4 weeks) | IC50 (ADAM8) | inhibition of ADAM10 (recombinant ADAM10) |
| --- | --- | --- | --- | --- | --- | --- | --- | --- | --- | --- | --- | --- | --- | --- | --- | --- | --- |
| ~50 nM | CNC(=O)[C@H](Cc1ccccc1)NC(=O)[C@H](CC(C)C)[C@H](CSc1cccs1)C(=O)NO [BB-94, batimastat, reference compound] | – | – | – | – | – | – | – | – | – | – | – | – | – | – | – | – |
| – | CC(C)C[C@@H]1NC(=O)[C@H](CCCNC(=N)N)NC(=O)[C@H](CCCCN)NC(=O)[C@H](CC(=O)O)NC(=O)[C@H](CCCCN)NC(=O)[C@@H](O)CNC1=O [Peptide P1, c(RLsKDK)] (cyclo(RL[isoSer(2S)]KDK)) | dramatically reduced tumour cell invasion | blocks cell invasion in a dose-dependent manner | significantly blocked | significantly blocked | showed the most marked inhibition | concentration-dependant inhibition | No inh. at 10 μM | very potent in the inhibition of cell adhesion | No inh. at 10 μM | No inh. at 10 μM | No inh. at 10 μM | not able to detect any differences in behaviour | all mice were alive and did not show any obvious abnormalities | did not show any evidence of toxicity | 100 nM | little inhibition |
| – | H-RLSKDK-OH (not fully specified (bridges)) [Peptide P4] | – | – | – | – | little effect on ADAM8 activity | – | – | – | – | – | – | – | – | – | – | – |
